Experimental findings from patent US10407410B2, “Pyridin-3-yl acetic acid derivatives as inhibitors of human immunodeficiency virus replication” (priority 2016, dated 2019) are described below.

The structures appear in SMILES notation.

This assay relates to NL-RLuc virus (HIV). The experiment in a line: Inhibition of HIV replication (NL-RLuc luciferase reporter virus in MT-2 cells). Conditions: Human immunodeficiency virus 1, MT2, 120 h. Format: cell-based. The source says:
Inhibition of HIV Replication
A recombinant NL-RLuc proviral clone was constructed in which a section of the nef gene from NL4-3 was replaced with the Renilla Luciferase gene. This virus is fully infectious and can undergo multiple cycles of replication in cell culture. In addition, the luciferous reporter provides a simple and easy method for quantitating the extent of virus growth and consequently, the antiviral activity of test compounds. The plasmid pNLRLuc contains the proviral NL-Rluc DNA cloned into pUC18 at the PvuII site. The NL-RLuc virus was prepared by transfection of 293T cells with the plasmid pNLRLuc. Transfections were performed using the LipofectAMINE PLUS kit from Invitrogen (Carlsbad, Calif.) according to the manufacturer and the virus generated was titered in MT-2 cells. For susceptibility analyses, the titrated virus was used to infect MT-2 cells in the presence of compound, and after 5 days of incubation, cells were processed and quantitated for virus growth by the amount of expressed luciferase. Assay media was RPMI 1640 supplemented with 10% heat inactivated fetal bovine serum (FBS), 100 units/ml penicillin G/100 units/ml streptomycin, 10 mM HEPES buffer pH 7.55 and 2 mM L-glutamine. The results from at least 2 experiments were used to calculate the EC50 values. Luciferase was quantitated using the Dual Luciferase kit from Promega (Madison, Wis.). Susceptibility of viruses to compounds was determined by incubation in the presence of serial dilutions of the compound. The 50% effective concentration (EC50) was calculated by using the exponential form of the median effect equation where (Fa)=1/[1+(ED50/drug conc.)^m] (Johnson V A, Byington R T. Infectivity Assay. In Techniques in HIV Research. ed. Aldovini A, Walker B D. 71-76. New York: Stockton Press. 1990).
Take `Cc1nc(C)c([C@H](OC(C)(C)C)C(=O)O)c(N2CCC(C)(C)CC2)c1-c1ccc2c(c1)CCC(Cc1ccc(F)cc1)C2` (stereo partly drawn) [Example 26, (2S)-2-(tert-Butoxy)-2-(4-(4,4-dimethylpiperidin-1-yl)-5-(6-(4-fluorobenzyl)-5,6,7,8-tetrahydronaphthalen-2-yl)-2,6-dimethylpyridin-3-yl)acetic acid]: the midpoint of the response, the EC50, lay at 10 nM. On to `Cc1nc(C)c([C@H](OC(C)(C)C)C(=O)O)c(N2CCC(C)(C)CC2)c1-c1ccc2c(c1)CN(C(=O)c1ccc(F)cc1)C2` [Example 22, (S)-2-(tert-butoxy)-2-(4-(4,4-dimethylpiperidin-1-yl)-5-(2-(4-fluorobenzoyl)isoindolin-5-yl)-2,6-dimethylpyridin-3-yl)acetic acid], for which a half-maximal effect (EC50) was put at 53 nM. `Cc1nc(C)c([C@H](OC(C)(C)C)C(=O)O)c(N2CCC(C)(C)CC2)c1-c1ccc2c(c1)CC[C@@H](Cc1ccccc1)O2` [Example 32, (S)-2-(5-((S)-2-Benzylchroman-6-yl)-4-(4,4-dimethylpiperidin-1-yl)-2,6-dimethylpyridin-3-yl)-2-tert-butoxyacetic acid] showed an EC50 of 2 nM. `Cc1cccc(C2CCc3cc(-c4c(C)nc(C)c([C@H](OC(C)(C)C)C(=O)O)c4N4CCC(C)(C)CC4)ccc3O2)n1` (stereo partly drawn) [Example 44, (2S)-2-tert-Butoxy-2-(4-(4,4-dimethylpiperidin-1-yl)-2,6-dimethyl-5-(2-(6-methylpyridin-2-yl)chroman-6-yl)pyridin-3-yl)acetic acid] showed a concentration for a half-maximal effect (EC50) of 8 nM.

In turn, `Cc1nc(C)c([C@H](OC(C)(C)C)C(=O)O)c(N2CCC(C)(C)CC2)c1-c1ccc2[nH]c(=O)cc(O)c2c1` [Example 12, (S)-2-(tert-butoxy)-2-(4-(4,4-dimethylpiperidin-1-yl)-5-(4-hydroxy-2-oxo-1,2-dihydroquinolin-6-yl)-2,6-dimethylpyridin-3-yl)acetic acid] displayed a concentration for a half-maximal effect (EC50) of 4960 nM.

In turn, `Cc1nc(C)c([C@H](OC(C)(C)C)C(=O)O)c(N2CCC(C)(C)CC2)c1-c1ccc2c(c1)CCC(COc1cccc(F)c1F)O2` (stereo partly drawn) [Example 41, (2S)-2-tert-Butoxy-2-(5-(2-((2,3-difluorophenoxy)methyl)chroman-6-yl)-4-(4,4-dimethylpiperidin-1-yl)-2,6-dimethylpyridin-3-yl)acetic acid] showed an EC50 of 3 nM. Turning to `Cc1nc(C)c([C@H](OC(C)(C)C)C(=O)O)c(N2CCC(C)(C)CC2)c1-c1ccc2cc[nH]c2c1` [Example 4, (S)-2-(tert-butoxy)-2-(4-(4,4-dimethylpiperidin-1-yl)-5-(1H-indol-6-yl)-2,6-dimethylpyridin-3-yl)acetic acid], the EC50 came to 233 nM. As for `Cc1nc(CO)c(-c2ccc3c(c2)CC[C@@H](Cc2ccccc2)O3)c(N2CCC(C)(C)CC2)c1[C@H](OC(C)(C)C)C(=O)O` [Example 33, (S)-2-(5-((S)-2-Benzylchroman-6-yl)-4-(4,4-dimethylpiperidin-1-yl)-6-(hydroxymethyl)-2-methylpyridin-3-yl)-2-tert-butoxyacetic acid], the figure is 7 nM; as for `Cc1nc(C)c([C@H](OC(C)(C)C)C(=O)O)c(N2CCC(C)(C)CC2)c1-c1ccc2c(c1)CCC(COc1ccccc1F)O2` (stereo partly drawn) [Example 40, (2S)-2-tert-Butoxy-2-(4-(4,4-dimethylpiperidin-1-yl)-5-(2-((2-fluorophenoxy)methyl)chroman-6-yl)-2,6-dimethylpyridin-3-yl)acetic acid], 4 nM. For `Cc1nc(C)c([C@H](OC(C)(C)C)C(=O)O)c(N2CCC(C)(C)CC2)c1-c1ccc2c(c1)CC[C@](C)(Cc1ccc(F)cc1)O2` [Example 38, (S)-2-tert-Butoxy-2-(4-(4,4-dimethylpiperidin-1-yl)-5-((R)-2-(4-fluorobenzyl)-2-methylchroman-6-yl)-2,6-dimethylpyridin-3-yl)acetic acid] the value was 4 nM; for `Cc1nc(C)c([C@H](OC(C)(C)C)C(=O)O)c(N2CCC(C)(C)CC2)c1-c1ccc2c(c1)CC/C(=C\c1ccc(F)cc1)C2` [Example 25, (S,E)-2-(tert-Butoxy)-2-(4-(4,4-dimethylpiperidin-1-yl)-5-(6-(4-fluorobenzylidene)-5,6,7,8-tetrahydronaphthalen-2-yl)-2,6-dimethylpyridin-3-yl)acetic acid], 5 nM; for `Cc1nc(C)c([C@H](OC(C)(C)C)C(=O)O)c(N2CCC(C)(C)CC2)c1-c1ccc2c(c1)CCN(Cc1cscn1)C2=O` [Example 17, (S)-2-(tert-butoxy)-2-(4-(4,4-dimethylpiperidin-1-yl)-2,6-dimethyl-5-(1-oxo-2-(thiazol-4-ylmethyl)-1,2,3,4-tetrahydroisoquinolin-6-yl)pyridin-3-yl)acetic acid], 24 nM. For `Cc1nc(C)c([C@H](OC(C)(C)C)C(=O)O)c(N2CCC(C)(C)CC2)c1-c1ccc2ccncc2c1` [Example 1, (S)-2-(tert-Butoxy)-2-(4-(4,4-dimethylpiperidin-1-yl)-5-(isoquinolin-7-yl)-2,6-dimethylpyridin-3-yl)acetic acid] the value was 47 nM; for `Cc1nc(C)c([C@H](OC(C)(C)C)C(=O)O)c(N2CCC(C)(C)CC2)c1-c1coc2ccccc12` [Example 7, (2S)-2-(5-(benzofuran-3-yl)-4-(4,4-dimethylpiperidin-1-yl)-2,6-dimethylpyridin-3-yl)-2-(tert-butoxy)acetic acid], 288 nM.

As for `Cc1nc(C)c([C@H](OC(C)(C)C)C(=O)O)c(N2CCC(C)(C)CC2)c1-c1ccc2c(c1)CC[C@@](C)(Cc1ccc(F)cc1)O2` [Example 39, (S)-2-tert-Butoxy-2-(4-(4,4-dimethylpiperidin-1-yl)-5-((S)-2-(4-fluorobenzyl)-2-methylchroman-6-yl)-2,6-dimethylpyridin-3-yl)acetic acid], a half-maximal effect (EC50) was put at 3 nM. The molecule `Cc1nc(C)c([C@H](OC(C)(C)C)C(=O)O)c(N2CCC(C)(C)CC2)c1-c1ccc2c(c1)CN(Cc1ccc(F)cc1)C2` [Example 21, (S)-2-(tert-butoxy)-2-(4-(4,4-dimethylpiperidin-1-yl)-5-(2-(4-fluorobenzyl)isoindolin-5-yl)-2,6-dimethylpyridin-3-yl)acetic acid] displayed an EC50 of 30 nM. Regarding `Cc1nc(C)c([C@H](OC(C)(C)C)C(=O)O)c(N2CCC(C)(C)CC2)c1-c1ccc2c(c1)CCC(Oc1ccc(F)cc1)C2` (stereo partly drawn) [Example 27, (2S)-2-(tert-Butoxy)-2-(4-(4,4-dimethylpiperidin-1-yl)-5-(6-(4-fluorophenoxy)-5,6,7,8-tetrahydronaphthalen-2-yl)-2,6-dimethylpyridin-3-yl)acetic acid], the EC50 stood at 6 nM. As for `Cc1nc(C)c([C@H](OC(C)(C)C)C(=O)O)c(N2CCC(C)(C)CC2)c1-c1ccc2c(c1)OCCN2C` [Example 9, (S)-2-(tert-butoxy)-2-(4-(4,4-dimethylpiperidin-1-yl)-2,6-dimethyl-5-(4-methyl-3,4-dihydro-2H-benzo[b][1,4]oxazin-7-yl)pyridin-3-yl)acetic acid], the figure is 87 nM. Molecule `Cc1nc(C)c([C@H](OC(C)(C)C)C(=O)O)c(N2CCC(C)(C)CC2)c1-c1ccc2c(c1)OCCO2` [Example 3, (S)-2-(tert-butoxy)-2-(5-(2,3-dihydrobenzo[b][1,4]dioxin-6-yl)-4-(4,4-dimethylpiperidin-1-yl)-2,6-dimethylpyridin-3-yl)acetic acid] registered a concentration giving a half-maximal response (EC50) of 101 nM.

As to `Cc1nc(C)c([C@H](OC(C)(C)C)C(=O)O)c(N2CCC(C)(C)CC2)c1-c1ccc2sc(C(=O)O)cc2c1` [Example 6, (S)-5-(5-(tert-butoxy(carboxy)methyl)-4-(4,4-dimethylpiperidin-1-yl)-2,6-dimethylpyridin-3-yl)benzo[b]thiophene-2-carboxylic acid], a half-maximal response (EC50) required 66000 nM.

`CCOc1ccc(S(=O)(=O)N2Cc3ccc(-c4c(C)nc(C)c([C@H](OC(C)(C)C)C(=O)O)c4N4CCC(C)(C)CC4)cc3C2)cc1` [Example 23, (S)-2-(tert-butoxy)-2-(4-(4,4-dimethylpiperidin-1-yl)-5-(2-((4-ethoxyphenyl)sulfonyl)isoindolin-5-yl)-2,6-dimethylpyridin-3-yl)acetic acid] yielded an EC50 of 17 nM. For `Cc1nc(CO)c(-c2ccc3c(c2)CC[C@H](Cc2ccc(F)cc2)O3)c(N2CCC(C)(C)CC2)c1[C@H](OC(C)(C)C)C(=O)O` [Example 37, (S)-2-tert-Butoxy-2-(4-(4,4-dimethylpiperidin-1-yl)-5-((R)-2-(4-fluorobenzyl)chroman-6-yl)-6-(hydroxymethyl)-2-methylpyridin-3-yl)acetic acid] the value was 1 nM. In turn, `Cc1nc(C)c([C@H](OC(C)(C)C)C(=O)O)c(N2CCC(C)(C)CC2)c1-c1ccc2c(c1)CC[C@H](Cc1ccc(F)cc1)O2` [Example 35, (S)-2-tert-Butoxy-2-(4-(4,4-dimethylpiperidin-1-yl)-5-((R)-2-(4-fluorobenzyl)chroman-6-yl)-2,6-dimethylpyridin-3-yl)acetic acid] gave an EC50 of 3 nM.
